In article PMC12518996 (Frontiers in Pharmacology, 2025):

target: T1, FMO1 (Homo sapiens, UniProt Q01740); assay: Metabolite formation by recombinant human FMO1; type: in vitro ADME; conditions: trazodone 4 μM; 37 °C, 40 min
T1 sequence (Q01740 1-532): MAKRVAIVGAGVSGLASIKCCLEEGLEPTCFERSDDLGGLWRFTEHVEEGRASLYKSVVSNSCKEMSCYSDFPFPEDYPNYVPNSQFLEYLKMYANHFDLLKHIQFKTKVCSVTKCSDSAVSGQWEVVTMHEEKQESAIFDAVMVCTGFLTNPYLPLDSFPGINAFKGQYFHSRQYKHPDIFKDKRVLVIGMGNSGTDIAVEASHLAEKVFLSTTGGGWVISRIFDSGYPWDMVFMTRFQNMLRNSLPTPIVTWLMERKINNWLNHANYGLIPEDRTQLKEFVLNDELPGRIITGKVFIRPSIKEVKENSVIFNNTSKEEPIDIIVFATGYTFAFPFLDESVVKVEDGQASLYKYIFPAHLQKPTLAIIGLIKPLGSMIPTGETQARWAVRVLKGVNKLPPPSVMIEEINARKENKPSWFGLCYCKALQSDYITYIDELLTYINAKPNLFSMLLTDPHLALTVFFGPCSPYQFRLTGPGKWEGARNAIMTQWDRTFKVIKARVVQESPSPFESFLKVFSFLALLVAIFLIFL

SMILES | Formation of trazodone phase I metabolite by recombinant human FMO1 (as LC/MS peak areas)
O=c1n(CCCN2CCNCC2)nc2ccccn12 [Metabolite M15] | 0
O=c1n(CCCO)nc2ccccn12 [Metabolite M20] | 0
Clc1cccc(N2CCNCC2)c1 [mCPP, m-chlorophenylpiperazine] | 6

target: T2, MAOA (Homo sapiens, UniProt P21397); assay: Metabolite formation by recombinant human MAOA; type: in vitro ADME; conditions: trazodone 4 μM; 37 °C, 40 min
T2 sequence (P21397 1-527): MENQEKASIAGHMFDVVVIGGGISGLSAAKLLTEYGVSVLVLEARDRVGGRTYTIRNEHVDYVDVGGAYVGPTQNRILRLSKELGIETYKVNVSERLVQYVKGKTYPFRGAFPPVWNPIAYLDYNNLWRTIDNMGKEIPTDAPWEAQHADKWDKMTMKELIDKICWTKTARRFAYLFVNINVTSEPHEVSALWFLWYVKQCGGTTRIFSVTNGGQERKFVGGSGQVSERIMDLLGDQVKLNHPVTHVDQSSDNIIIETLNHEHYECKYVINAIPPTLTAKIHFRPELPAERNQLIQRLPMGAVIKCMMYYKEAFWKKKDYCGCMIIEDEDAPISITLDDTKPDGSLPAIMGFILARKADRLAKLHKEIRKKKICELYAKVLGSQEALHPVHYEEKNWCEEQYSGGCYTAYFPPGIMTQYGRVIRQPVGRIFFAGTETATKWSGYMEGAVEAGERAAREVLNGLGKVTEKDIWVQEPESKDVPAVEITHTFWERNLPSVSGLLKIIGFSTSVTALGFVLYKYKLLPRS

SMILES | Formation of trazodone phase I metabolite by recombinant human MAOA (as LC/MS peak areas)
O=c1n(CCCN2CCNCC2)nc2ccccn12 [Metabolite M15] | 0
O=c1n(CCCO)nc2ccccn12 [Metabolite M20] | 0
Clc1cccc(N2CCNCC2)c1 [mCPP, m-chlorophenylpiperazine] | 28

target: T3, CYP2B6 (Homo sapiens, UniProt P20813); assay: Metabolite formation by recombinant human CYP2B6; type: in vitro ADME; conditions: trazodone 4 μM; NADPH; 37 °C, 40 min
T3 sequence (P20813 1-491): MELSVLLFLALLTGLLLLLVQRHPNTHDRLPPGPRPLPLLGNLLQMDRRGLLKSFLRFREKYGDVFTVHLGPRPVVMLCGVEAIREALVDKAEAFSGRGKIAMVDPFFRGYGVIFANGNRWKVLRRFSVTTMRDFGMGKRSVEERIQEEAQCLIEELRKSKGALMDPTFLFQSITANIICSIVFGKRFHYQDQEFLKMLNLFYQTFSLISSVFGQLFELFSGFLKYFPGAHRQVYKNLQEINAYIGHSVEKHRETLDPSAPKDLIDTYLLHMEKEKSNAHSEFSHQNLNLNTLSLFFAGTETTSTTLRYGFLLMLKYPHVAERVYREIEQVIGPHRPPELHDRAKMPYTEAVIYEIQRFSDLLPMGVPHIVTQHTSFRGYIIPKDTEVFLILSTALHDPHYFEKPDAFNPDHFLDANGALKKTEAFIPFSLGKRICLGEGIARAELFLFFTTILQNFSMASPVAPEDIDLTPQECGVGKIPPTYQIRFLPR
Procedure: (§1) To confirm the role of individual CYP isoforms in metabolizing trazodone, recombinant human and rat CYP enzymes were employed in separate incubations. […] Each reaction was terminated with acetonitrile, centrifuged, and the supernatant was analyzed by identical UHPLC-Orbitrap setup outlined in §2.2, allowing direct comparison of metabolite spectra across all in-vitro systems. […] This procedure helped confirm the contributions of individual isoforms to specific biotransformation reactions.

SMILES | Formation of trazodone phase I metabolite by recombinant human CYP2B6 (as LC/MS peak areas)
O=c1n(CCCN2CCNCC2)nc2ccccn12 [Metabolite M15] | 0
O=c1n(CCCO)nc2ccccn12 [Metabolite M20] | 0
Clc1cccc(N2CCNCC2)c1 [mCPP, m-chlorophenylpiperazine] | 112

target: CYP2E1 (Homo sapiens, UniProt P05181); assay: Metabolite formation by recombinant human CYP2E1; type: in vitro ADME; conditions: trazodone 4 μM; NADPH; 37 °C, 40 min
Sequence (P05181 whole entry): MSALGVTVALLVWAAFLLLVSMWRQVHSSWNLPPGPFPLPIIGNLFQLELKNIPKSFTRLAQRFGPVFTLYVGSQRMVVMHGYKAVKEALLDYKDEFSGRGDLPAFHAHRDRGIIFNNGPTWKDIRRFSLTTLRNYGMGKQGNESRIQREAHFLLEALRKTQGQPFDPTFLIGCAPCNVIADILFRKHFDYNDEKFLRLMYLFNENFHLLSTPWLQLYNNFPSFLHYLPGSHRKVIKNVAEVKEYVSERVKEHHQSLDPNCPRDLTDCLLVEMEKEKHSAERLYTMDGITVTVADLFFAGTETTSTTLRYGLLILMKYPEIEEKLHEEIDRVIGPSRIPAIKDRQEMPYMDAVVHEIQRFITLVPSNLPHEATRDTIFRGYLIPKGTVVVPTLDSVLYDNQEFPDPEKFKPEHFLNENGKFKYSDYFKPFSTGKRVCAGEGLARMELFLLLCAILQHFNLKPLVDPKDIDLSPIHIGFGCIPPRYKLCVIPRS
Procedure: as §1

SMILES | Formation of trazodone phase I metabolite by recombinant human CYP2E1 (as LC/MS peak areas)
O=c1n(CCCN2CCNCC2)nc2ccccn12 [Metabolite M15] | 0
O=c1n(CCCO)nc2ccccn12 [Metabolite M20] | 0
Clc1cccc(N2CCNCC2)c1 [mCPP, m-chlorophenylpiperazine] | 16
